Measurements from PubChem BioAssay AID248 (DTP/NCI, 2004).
Toxic doses and inconclusive results are not listed.

Test system: L1210 leukemia ip in BDF1 mice, survival T/C
Assay: NCI In Vivo Anticancer Drug Screen. Data for tumor model L1210 Leukemia (intraperitoneal) in B6D2F1 (BDF1) mice
Settings: endpoint: mean survival time, higher = longer survival
How it was run: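 Value reflects the ratio of survival in compound-treated mice to survival in vehicle-treated controls, with both groups carrying the same transplanted tumor.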

[1] = dose: 100.0 mg/kg/injection, schedule: Q04DX003 (ip), vehicle: Klucel (hydroxypropylcellulose) (HPC)

Cc1ccc(/C=N\N=C(\N)N/N=C/c2ccc(C)cc2)cc1
T/C (dose: 15.0 mg/kg/injection, schedule: Q01DX Z (ip), vehicle: carboxymethylcellulose (CMC)): 95 % of control
T/C (dose: 30.0 mg/kg/injection, schedule: Q01DX Z (ip), vehicle: carboxymethylcellulose (CMC)): 93 % of control
T/C (dose: 60.0 mg/kg/injection, schedule: Q01DX Z (ip), vehicle: carboxymethylcellulose (CMC)): 87 % of control
T/C (dose: 120.0 mg/kg/injection, schedule: Q01DX Z (ip), vehicle: carboxymethylcellulose (CMC)): 96 % of control
T/C (dose: 120.0 mg/kg/injection, schedule: Q01DX Z (oral), vehicle: carboxymethylcellulose (CMC)): 101 % of control
T/C (dose: 240.0 mg/kg/injection, schedule: Q01DX Z (oral), vehicle: carboxymethylcellulose (CMC)): 101 % of control
T/C (dose: 480.0 mg/kg/injection, schedule: Q01DX Z (oral), vehicle: carboxymethylcellulose (CMC)): 96 % of control
T/C (dose: 960.0 mg/kg/injection, schedule: Q01DX Z (oral), vehicle: carboxymethylcellulose (CMC)): 101 % of control

CCO/C([O-])=C/[P+](c1ccccc1)(c1ccccc1)c1ccccc1
T/C (dose: 12.5 mg/kg/injection, schedule: Q01DX009 (ip), vehicle: Klucel (hydroxypropylcellulose) (HPC)): 103 % of control
T/C (dose: 25.0 mg/kg/injection, schedule: Q01DX009 (ip), vehicle: Klucel (hydroxypropylcellulose) (HPC)): 106 % of control
T/C (dose: 25.0 mg/kg/injection, schedule: Q04DX003 (ip), vehicle: Klucel (hydroxypropylcellulose) (HPC)): 103 % of control
T/C (dose: 50.0 mg/kg/injection, schedule: Q01DX009 (ip), vehicle: Klucel (hydroxypropylcellulose) (HPC)): 103 % of control
T/C (dose: 50.0 mg/kg/injection, schedule: Q04DX003 (ip), vehicle: Klucel (hydroxypropylcellulose) (HPC)): 103 % of control
T/C [1]: 96 % of control

N#CC(CCCc1ccccc1)c1ccc(N)cc1 (stereo unspecified)
T/C (dose: 100.0 mg/kg/injection, schedule: Q01DX001 (ip), vehicle: Klucel (hydroxypropylcellulose) (HPC)): 91 % of control
T/C (dose: 200.0 mg/kg/injection, schedule: Q01DX001 (ip), vehicle: Klucel (hydroxypropylcellulose) (HPC)): 94 % of control
T/C (dose: 400.0 mg/kg/injection, schedule: Q01DX001 (ip), vehicle: Klucel (hydroxypropylcellulose) (HPC)): 103 % of control

N#C/C(=C\c1cc(Cl)ccc1O)C1CCC([N+](=O)[O-])CC1 (stereo unspecified)
T/C (dose: 100.0 mg/kg/injection, schedule: Q04DX002 (ip), vehicle: saline with Tween-80): 98 % of control
T/C (dose: 200.0 mg/kg/injection, schedule: Q04DX002 (ip), vehicle: saline with Tween-80): 113 % of control
T/C (dose: 400.0 mg/kg/injection, schedule: Q04DX002 (ip), vehicle: saline with Tween-80): 106 % of control

O=C(Nc1ccc(NC(=O)Nc2cccc(C3=NCCN3)c2)cc1)Nc1ccc(C2=NCCN2)cc1
T/C (dose: 1.0 mg/kg/injection, schedule: Q01DX Z (ip), vehicle: carboxymethylcellulose (CMC)): 88 % of control
T/C (dose: 2.0 mg/kg/injection, schedule: Q01DX Z (ip), vehicle: carboxymethylcellulose (CMC)): 102 % of control
T/C (dose: 4.0 mg/kg/injection, schedule: Q01DX Z (ip), vehicle: carboxymethylcellulose (CMC)): 95 % of control
T/C (dose: 8.0 mg/kg/injection, schedule: Q01DX Z (ip), vehicle: carboxymethylcellulose (CMC)): 107 % of control
T/C (dose: 14.0 mg/kg/injection, schedule: Q01DX Z (oral), vehicle: carboxymethylcellulose (CMC)): 108 % of control
T/C (dose: 18.0 mg/kg/injection, schedule: Q01DX Z (ip), vehicle: carboxymethylcellulose (CMC)): 202 % of control
T/C (dose: 21.0 mg/kg/injection, schedule: Q01DX Z (oral), vehicle: carboxymethylcellulose (CMC)): 109 % of control
T/C (dose: 32.0 mg/kg/injection, schedule: Q01DX Z (oral), vehicle: carboxymethylcellulose (CMC)): 103 % of control
T/C (dose: 36.0 mg/kg/injection, schedule: Q01DX Z (ip), vehicle: carboxymethylcellulose (CMC)): 116 % of control
T/C (dose: 48.0 mg/kg/injection, schedule: Q01DX Z (oral), vehicle: carboxymethylcellulose (CMC)): 103 % of control
T/C (dose: 62.0 mg/kg/injection, schedule: Q01DX Z (ip), vehicle: saline): 164 % of control
T/C (dose: 72.0 mg/kg/injection, schedule: Q01DX Z (oral), vehicle: carboxymethylcellulose (CMC)): 122 % of control
T/C (dose: 125.0 mg/kg/injection, schedule: Q01DX Z (ip), vehicle: saline): 91 % of control

OC1c2ccccc2-c2c(F)c(F)c(F)c(F)c21 (stereo unspecified)
T/C (dose: 50.0 mg/kg/injection, schedule: Q01DX001 (ip), vehicle: carboxymethylcellulose (CMC)): 96 % of control
T/C (dose: 100.0 mg/kg/injection, schedule: Q01DX001 (ip), vehicle: carboxymethylcellulose (CMC)): 97 % of control
T/C (dose: 200.0 mg/kg/injection, schedule: Q01DX001 (ip), vehicle: carboxymethylcellulose (CMC)): 94 % of control
T/C (dose: 400.0 mg/kg/injection, schedule: Q01DX001 (ip), vehicle: carboxymethylcellulose (CMC)): 111 % of control

CSc1ncnc2c1nnn2C1OC(CO)C(O)C1O (stereo unspecified)
T/C (dose: 12.5 mg/kg/injection, schedule: Q01DX001 (ip), vehicle: saline): 97 % of control
T/C (dose: 25.0 mg/kg/injection, schedule: Q01DX001 (ip), vehicle: saline): 103 % of control
T/C (dose: 50.0 mg/kg/injection, schedule: Q01DX001 (ip), vehicle: saline): 115 % of control
T/C (dose: 75.0 mg/kg/injection, schedule: Q01DX001 (ip), vehicle: saline): 114 % of control
T/C (dose: 100.0 mg/kg/injection, schedule: Q01DX001 (ip), vehicle: saline): 110 % of control
T/C (dose: 150.0 mg/kg/injection, schedule: Q01DX001 (ip), vehicle: saline): 110 % of control

COc1cc(C)ccc1-c1c(C(=O)O)cccc1[N+](=O)[O-]
T/C [1]: 93 % of control
T/C (dose: 200.0 mg/kg/injection, schedule: Q04DX003 (ip), vehicle: Klucel (hydroxypropylcellulose) (HPC)): 95 % of control
T/C (dose: 400.0 mg/kg/injection, schedule: Q04DX003 (ip), vehicle: Klucel (hydroxypropylcellulose) (HPC)): 90 % of control
